# Laboratory results from patent US8785404B2, “Urea compounds” (Eli Lilly and Company, priority 2012, dated 2014).
# Experiments:
# human SGLT1 = target: T1, human SGLT1 (Homo sapiens, UniProt P13866); assay: 14C-AMG uptake assay, human SGLT1 in CHO-K1 cells; assay type: cell-based
# T1 sequence (P13866 1-664): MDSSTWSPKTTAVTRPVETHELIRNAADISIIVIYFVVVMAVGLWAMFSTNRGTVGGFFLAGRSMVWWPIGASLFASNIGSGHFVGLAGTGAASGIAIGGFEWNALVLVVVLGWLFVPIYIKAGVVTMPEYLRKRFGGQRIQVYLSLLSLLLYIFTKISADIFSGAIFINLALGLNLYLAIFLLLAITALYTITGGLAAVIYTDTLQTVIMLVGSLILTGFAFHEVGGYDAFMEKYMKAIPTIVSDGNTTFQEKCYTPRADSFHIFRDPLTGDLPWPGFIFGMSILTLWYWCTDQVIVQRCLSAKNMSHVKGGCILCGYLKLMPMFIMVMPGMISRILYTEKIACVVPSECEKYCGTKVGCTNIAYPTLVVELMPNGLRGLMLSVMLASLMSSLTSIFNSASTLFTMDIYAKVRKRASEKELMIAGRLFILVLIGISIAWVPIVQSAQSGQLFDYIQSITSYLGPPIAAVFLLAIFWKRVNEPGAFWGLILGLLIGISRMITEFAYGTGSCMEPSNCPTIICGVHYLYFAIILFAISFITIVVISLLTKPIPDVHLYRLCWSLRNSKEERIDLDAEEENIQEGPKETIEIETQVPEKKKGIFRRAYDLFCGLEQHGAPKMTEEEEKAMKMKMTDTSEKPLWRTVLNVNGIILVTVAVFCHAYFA
# From the text: (§1) The cDNA encoding human SGLT1 (slc5a1, NM_000343), human SGLT2 (slc5a2, NM_003041) and mouse SGLT1 (slc5a1, NM_019810.4) are purchased from Openbiosystems, Invitrogen and Openbiosystems, respectively. The cDNA is cloned into pcDNA3.1+ for mammalian expression and is stably transfected into Chinese hamster ovary (CHO)-K1 cells using standard mammalian transfection procedures. An SGLT-expressing sub-clone of each over-expressing cell line is selected based on resistance to neomycin (Geneticin, Invitrogen) and activity in the ^14C-α-methyl-D-glucopyranoside (^14C-AMG) uptake assay (see below). Stable SGLT-expressing cells are maintained using standard cell culture techniques.
# (§2) The SGLT activity is measured as sodium-dependent ^14C-AMG uptake in the above cell lines described as follows. One hundred μL of culture medium containing 30,000 cells are seeded to each well of a 96-well BioCoat poly-D-lysine plate (Becton Dickson) and cultured at 37° C. overnight. The culture medium is aspirated and cells are washed twice with 200 μL of Reaction Buffer (140 mM NaCl, 2 mM KCl, 1 mM CaCl2, MgCl2, and 14 mM N-2-hydroethylpiperrazine-N′-2-ethanesulfonic acid (Hepes), pH 7.5). The excess buffer is tapped out onto paper towels. Thirty-five μL of Reaction Buffer are added to each well. […] After mixing, the scintillation signal in the plate is counted in a MicroBeta (PerkinElmer). […]
# human SGLT2 = target: T2, human SGLT2 (Homo sapiens, UniProt P31639); assay: 14C-AMG uptake assay, human SGLT2 in CHO-K1 cells; assay type: cell-based; settings: sodium-dependent 14C-AMG uptake, n = 5
# T2 sequence (P31639 1-672): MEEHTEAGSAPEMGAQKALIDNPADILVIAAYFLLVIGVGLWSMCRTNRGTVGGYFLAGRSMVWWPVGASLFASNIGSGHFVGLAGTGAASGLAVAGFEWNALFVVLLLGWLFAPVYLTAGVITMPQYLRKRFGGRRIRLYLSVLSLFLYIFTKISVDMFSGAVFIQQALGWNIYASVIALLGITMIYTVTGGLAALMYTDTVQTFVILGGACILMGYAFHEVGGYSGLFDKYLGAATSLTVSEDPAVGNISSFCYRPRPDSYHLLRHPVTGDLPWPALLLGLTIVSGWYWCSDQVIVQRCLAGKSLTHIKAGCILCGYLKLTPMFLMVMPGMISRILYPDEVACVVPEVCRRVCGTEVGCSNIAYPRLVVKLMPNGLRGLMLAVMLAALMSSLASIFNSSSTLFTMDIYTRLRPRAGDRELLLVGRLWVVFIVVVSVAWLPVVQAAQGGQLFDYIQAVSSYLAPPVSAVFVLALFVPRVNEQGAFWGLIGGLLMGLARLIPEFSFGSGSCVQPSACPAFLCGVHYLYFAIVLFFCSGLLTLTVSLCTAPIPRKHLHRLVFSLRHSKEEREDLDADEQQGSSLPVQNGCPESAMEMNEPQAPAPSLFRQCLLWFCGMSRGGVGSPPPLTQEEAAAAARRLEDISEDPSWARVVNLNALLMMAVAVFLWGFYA
# From the text: as §1, §2
# mouse SGLT1 = target: T3, mouse SGLT1 (Mus musculus, UniProt Q8C3K6); assay: 14C-AMG uptake assay, mouse SGLT1 in CHO-K1 cells; assay type: cell-based; settings: sodium-dependent 14C-AMG uptake, n = 5
# T3 sequence (Q8C3K6 1-665): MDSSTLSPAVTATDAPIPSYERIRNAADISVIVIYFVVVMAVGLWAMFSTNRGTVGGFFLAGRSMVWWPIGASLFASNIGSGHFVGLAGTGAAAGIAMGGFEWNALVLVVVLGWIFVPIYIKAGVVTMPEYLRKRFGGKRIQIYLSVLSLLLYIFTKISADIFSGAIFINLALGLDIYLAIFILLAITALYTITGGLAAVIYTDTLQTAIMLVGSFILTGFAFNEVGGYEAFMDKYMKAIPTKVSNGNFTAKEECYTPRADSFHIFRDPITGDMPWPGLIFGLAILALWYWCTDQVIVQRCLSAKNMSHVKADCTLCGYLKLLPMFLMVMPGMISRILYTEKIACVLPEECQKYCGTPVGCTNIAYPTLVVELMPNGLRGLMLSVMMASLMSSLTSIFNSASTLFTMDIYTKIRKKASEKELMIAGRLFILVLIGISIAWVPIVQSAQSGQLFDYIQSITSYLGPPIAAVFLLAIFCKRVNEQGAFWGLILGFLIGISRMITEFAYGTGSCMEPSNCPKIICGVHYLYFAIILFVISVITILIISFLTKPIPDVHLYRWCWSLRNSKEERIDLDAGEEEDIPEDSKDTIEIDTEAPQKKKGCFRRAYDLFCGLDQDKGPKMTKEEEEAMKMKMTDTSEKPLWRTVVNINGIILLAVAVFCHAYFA
# From the text: as §1, §2
# C57Bl/6 mice = assay: Glucose lowering effects in oral glucose tolerance test (OGTT); assay type: in vivo, mouse; settings: for Glucose, 20 Minute / Glucose, 40 Minute / Glucose, 60 Minute / Glucose, 120 Minute / Glucose, 0 Minute / Baseline Adjusted AUC (glucose) / Glucose Cmax / Glucose Tmax: 10 mg/kg oral, mean ± SE; for Glucose, 20 Minute: 20 min after dextrose 3 g/kg; for Glucose, 40 Minute: 40 min after dextrose 3 g/kg; for Glucose, 60 Minute: 60 min after dextrose 3 g/kg; for Glucose, 120 Minute: 120 min after dextrose 3 g/kg; for Glucose, 0 Minute: baseline before dextrose 3 g/kg
# Protocol: The test compound is formulated by adding a vehicle of 1% hydroxyethylcellulose, 0.25% Tween® 80 w/antifoam 0.05% to preweighed test compound to make a 1 mg/ml solution. The mixture is probe sonicated for approximately 1 minute. A stir bar is added, and the resulting suspension is stirred continuously throughout dosing.
# Single housed C57Bl/6 mice are weighed and body weights used to determine study groups (n=5), within a working range of 26-30 g. After grouping, all mice are fasted overnight by removing access to food, late afternoon before test day. At the same time, two groups of mice are orally gavaged with 10 ml/kg test compound preparation or vehicle. Animals are dosed thirty seconds apart. […] The following morning, the remaining mice are weighed and orally gavaged using the same protocol as the previous day.
# At five, eight and eighteen hours after each respective compound treatment is started, a baseline blood sample is taken for measuring glucose (from the first animal, via tail snip). The animal is then immediately given an oral dose of 50% dextrose (Hospira®) at 3 g/kg. Blood samples are taken for glucose, exactly thirty seconds apart, by tail vein so that blood is collected in each animal at 20, 40, 60 and 120 minutes after the dextrose dose.
smiles,measurement,setting,value
"Cc1cc(/C=C/CCN2CCCC3(CCN(C(=O)CNC(=O)NCC(C)C)CC3)C2)ccc1Cc1c(O[C@@H]2O[C@H](CO)[C@@H](O)[C@H](O)[C@H]2O)n[nH]c1C(C)C [Example 1, 1-(2-{2-[(3E)-4-(4-{[3-(beta-D-glucopyranosyloxy)-5-(propan-2-yl)-1H-pyrazol-4-yl]methyl}-3-methylphenyl)but-3-en-1-yl]-2,9-diazaspiro[5.5]undec-9-yl}-2-oxoethyl)-3-(2-methylpropyl)urea]",Potency at SGLT1 relative to human SGLT2 (in words),"human SGLT1; in vitro, human and mouse SGLT1 vs human SGLT2",more potent at human and mouse SGLT1 than at human SGLT2
same,IC50,"human SGLT1; sodium-dependent 14C-AMG uptake, CHO-K1 cells, n = 5",17.3 ± 16.2 nM
same,IC50,human SGLT2,171 ± 26 nM
same,IC50,mouse SGLT1,7.3 ± 2.9 nM
same,"Glucose, 20 Minute",C57Bl/6 mice; OGTT @ 5 hr post dose,124.7 ± 7.66 mg/dL
same,"Glucose, 40 Minute",C57Bl/6 mice; OGTT @ 5 hr post dose,139.2 ± 7.69 mg/dL
same,"Glucose, 60 Minute",C57Bl/6 mice; OGTT @ 5 hr post dose,133.2 ± 6.24 mg/dL
same,"Glucose, 120 Minute",C57Bl/6 mice; OGTT @ 5 hr post dose,108.7 ± 4.93 mg/dL
same,"Glucose, 0 Minute",C57Bl/6 mice; OGTT @ 5 hr post dose,75.9 ± 3.21 mg/dL
same,Baseline Adjusted AUC (glucose),C57Bl/6 mice; OGTT @ 5 hr post dose,2815 ± 194 mg/dL
same,Glucose Cmax,C57Bl/6 mice; OGTT @ 5 hr post dose,140.2 ± 7.48 mg/dL
same,Glucose Tmax,C57Bl/6 mice; OGTT @ 5 hr post dose,56 ± 16 min
same,"Glucose, 20 Minute",C57Bl/6 mice; OGTT @ 8 hrs post dose,142.4 ± 7.4 mg/dL
same,"Glucose, 40 Minute",C57Bl/6 mice; OGTT @ 8 hrs post dose,168.1 ± 8.37 mg/dL
same,"Glucose, 60 Minute",C57Bl/6 mice; OGTT @ 8 hrs post dose,171.2 ± 10.1 mg/dL
same,"Glucose, 120 Minute",C57Bl/6 mice; OGTT @ 8 hrs post dose,113.6 ± 4.25 mg/dL
same,"Glucose, 0 Minute",C57Bl/6 mice; OGTT @ 8 hrs post dose,75.5 ± 4.42 mg/dL
same,Baseline Adjusted AUC (glucose),C57Bl/6 mice; OGTT @ 8 hrs post dose,4147 ± 456 mg/dL
same,Glucose Cmax,C57Bl/6 mice; OGTT @ 8 hrs post dose,175.1 ± 9.3 mg/dL
same,Glucose Tmax,C57Bl/6 mice; OGTT @ 8 hrs post dose,52 ± 4.9 min
same,"Glucose, 20 Minute",C57Bl/6 mice; OGTT @ 18 hrs post dose,196.0 ± 16.6 mg/dL
same,"Glucose, 40 Minute",C57Bl/6 mice; OGTT @ 18 hrs post dose,216.1 ± 15.0 mg/dL
same,"Glucose, 60 Minute",C57Bl/6 mice; OGTT @ 18 hrs post dose,188.7 ± 13.8 mg/dL
same,"Glucose, 120 Minute",C57Bl/6 mice; OGTT @ 18 hrs post dose,110.3 ± 5.74 mg/dL
same,"Glucose, 0 Minute",C57Bl/6 mice; OGTT @ 18 hrs post dose,78.7 ± 8.81 mg/dL
same,Baseline Adjusted AUC (glucose),C57Bl/6 mice; OGTT @ 18 hrs post dose,6194 ± 406 mg/dL
same,Glucose Cmax,C57Bl/6 mice; OGTT @ 18 hrs post dose,216.1 ± 15.0 mg/dL
same,Glucose Tmax,C57Bl/6 mice; OGTT @ 18 hrs post dose,44 ± 4.0 min
same,Average maximum concentration of plasma glucose (Cmax) (in words),C57Bl/6 mice; during all three OGTTs,decreases
same,Average time for glucose to reach maximum concentration (Tmax) (in words),C57Bl/6 mice; during all three OGTTs,increasing
same,Baseline adjusted glucose AUC (in words),C57Bl/6 mice; during all three OGTTs,dose dependent decrease
same,Glucose excursion after oral bolus of 50% dextrose (in words),"C57Bl/6 mice; normal glycemic C57Bl/6 mouse, five, eight or eighteen hours after administration",decrease in the glucose excursion
